Earlier results on one substance are cited in patent publication US11229664B2, “Treatment of myelosuppression” (priority 2012, dated 2022).

Some targets named below: Xa (Homo sapiens, UniProt P00742); IIa (Homo sapiens, UniProt P00734+P01008); anti-thrombin III (Homo sapiens, UniProt P01008).
Details in all cases: cited from earlier work
In the next series the test system is anticoagulant activity.

Chain of anti-thrombin III (P01008 33-464, species assumed): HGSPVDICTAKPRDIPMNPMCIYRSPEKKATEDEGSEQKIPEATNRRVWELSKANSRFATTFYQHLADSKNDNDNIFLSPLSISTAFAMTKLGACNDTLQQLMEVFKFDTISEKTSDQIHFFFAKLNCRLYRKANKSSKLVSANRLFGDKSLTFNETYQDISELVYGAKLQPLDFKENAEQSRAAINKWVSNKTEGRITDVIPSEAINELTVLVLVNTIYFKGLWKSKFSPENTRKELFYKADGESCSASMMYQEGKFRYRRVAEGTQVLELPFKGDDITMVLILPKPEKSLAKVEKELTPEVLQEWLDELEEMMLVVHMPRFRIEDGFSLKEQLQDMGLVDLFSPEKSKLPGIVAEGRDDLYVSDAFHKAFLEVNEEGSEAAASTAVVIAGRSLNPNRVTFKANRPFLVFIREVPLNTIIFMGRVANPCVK
Chain of Xa (P01008 33-464 partner): as the sequence (P01008 33-464, species assumed) above
Chain of Xa (P00742 235-488 limits assumed): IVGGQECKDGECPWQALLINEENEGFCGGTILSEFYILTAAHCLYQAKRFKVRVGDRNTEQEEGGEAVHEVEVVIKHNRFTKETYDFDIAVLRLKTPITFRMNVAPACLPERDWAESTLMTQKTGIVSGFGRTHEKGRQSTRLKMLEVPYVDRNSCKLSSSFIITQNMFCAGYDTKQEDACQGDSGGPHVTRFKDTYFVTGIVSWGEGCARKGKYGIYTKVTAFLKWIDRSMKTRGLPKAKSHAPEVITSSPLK

Consider unfractionated heparin, for which the anti-Xa activity at Xa is listed as 165-190 U/mg. In addition, the “Anticoagulant activity, USP anticoagulant assay” value in the series on anticoagulant activity is 165-190 U/mg. Also, the anti-IIa activity at IIa was 165-190 U/mg. Further, the “Kd, affinity for anti-thrombin III” value at anti-thrombin III was 22 µg/mL. In addition, the Kd – broadly, the equilibrium constant for the complex coming apart – on anti-thrombin III (read-out: Kd, affinity for anti-thrombin III) was 1.56 µM.
